From patent publication US20110110965A1, “COMPOSITIONS THAT INDUCE T CELL HELP” (Selecta Biosciences, Inc., priority 2009, published 2011)
“Also recorded” adds a separate entry of the source. Like-named read-outs stand apart in the source and are kept apart here. Where no end group is shown, it is not given here. [ ]: non-standard residue; d: D form.

What was measured:
[1] = test system: CD4+/CD45RAlow/CD62Lhigh central memory T-cells; type: cell-based, human; conditions: for potency of recall response (activated central memory T-cells, CD4+/CD45RAmedium/CD62Lhigh/IFN-γ+): human PBMC, 20 donors, FIG. 2; for potency of recall response (activated central memory T-cells, CD4+/CD45RAmedium/CD62Lhigh/IFN-γ+) / memory T-cell recall response, influenza epitopes / memory T-cell recall response of individual peptides and heterodimeric peptides lacking a cathepsin cleavage site compared with this peptide: 4 μM peptide; for memory T-cell recall response, influenza epitopes: 5 PBMC donors, FIG. 12; for memory T-cell recall response of individual peptides and heterodimeric peptides lacking a cathepsin cleavage site compared with this peptide: 4 donors, the comparators gave the weaker response, the labelled kvsvr peptides the stronger
[2] = test system: CD4+/CD45RAlow/CD62Lhigh central memory T-cells; experiment: Dendritic cell/CD4 T-cell co-culture, multi-color intracellular cytokine analysis; type: cell-based, human; conditions: for expression of IL-4 in peptide activated memory T-cells / expression of TNF-α and IFN-γ in peptide activated memory T-cells: DC/CD4 T-cell co-culture with peptide, FIGS. 4, 5; for co-expression of TNF-α and IFN-γ / co-expression of TNF-α and IL-4: multiple color flow cytometry, FIG. 6
Description: Early central memory-cells express multiple cytokines (IL-2, TNF-α, IFN-γ) when re-activated with specific peptides, whereas committed effector memory T-cells are thought to selectively express IL-4 for TH2 committed effector memory, and IFN-γ for TH1 committed effector memory. The status of peptide activated memory T-cells was tested using multi-color intracellular cytokine analysis of dendritic cell/CD4 cell co-cultures.
Human peripheral blood monocytes were isolated using negative-selection magnetic beads (Dynal) and cultured in the presence of GM-CSF and IL-4 for 1 week in order to induce differentiation into dendritic cells. Allogeneic CD4 T cells were isolated using magnetic bead separation (Dynal) and co-cultured in the presence of DCs in the presence or absence of peptide. The protocol for stimulation and analysis from that point is identical to that for PBMC described above in Example 2.

TLLYVLFEVPMGLPILMQYIKANSKFIGI [AdVpTT830]
potency of recall response (activated central memory T-cells, CD4+/CD45RAmedium/CD62Lhigh/IFN-γ+) [1]: eliminated activity of the AdV epitope

ILSIYSTVASSLALAIkvsvrLIFLARSALILR [ABW2kAAT]
memory T-cell recall response, influenza epitopes [1]: positive

ILMQYIKANSKFIGIQSIALSSLMVAQAIPLVGEL [TT830DT]
expression of IL-4 in peptide activated memory T-cells [2]: not IL-4
expression of TNF-α and IFN-γ in peptide activated memory T-cells [2]: increased expression

ILMQYIKANSKFIGIQSIALSSLMVAQ [TT830DTt]
co-expression of TNF-α and IFN-γ [2]: peptide induced co-expression
co-expression of TNF-α and IL-4 [2]: not co-expression

NAELLVALENQHTIkvsvrLIFLARSALILR (NAELLVALENQHTIKVSVRLIFLARSALILR) [3120tkAAT]
memory T-cell recall response, influenza epitopes [1]: positive

ILMQYIKANSKFIGI QSIALSSLMVAQTLLYVLFEV (ILMQYIKANSKFIGIQSIALSSLMVAQTLLYVLFEV) [TT830DTAdV]
memory T-cell recall response [1]: recall response in all 4 donors

CSQRSKFLLMDALKLkvsvrLIFLARSALILR [AAWkAAT]
memory T-cell recall response, influenza epitopes [1]: positive

TLLYVLFEVkvsvr NNFTVSFWLRVPKVSASHLET (TLLYVLFEV[dK][dV][dS][dV][dR]NNFTVSFWLRVPKVSASHLET) [AdVkTT950]
memory T-cell recall response of individual peptides and heterodimeric peptides lacking a cathepsin cleavage site compared with this peptide [1]: weaker response as compared to the donor response to heterotrimeric peptides

ILMQYIKANSKFIGIPMGLPQSIALSSLMVAQ [TT830pDTt]
expression of IL-4 in peptide activated memory T-cells [2]: not IL-4
expression of TNF-α and IFN-γ in peptide activated memory T-cells [2]: increased expression
co-expression of TNF-α and IFN-γ [2]: peptide induced co-expression
co-expression of TNF-α and IL-4 [2]: not co-expression
potency of recall response (activated central memory T-cells, CD4+/CD45RAmedium/CD62Lhigh/IFN-γ+) ([1]; listed as TT830 pmglpDTt): highest response; also recorded: more active than its individual components (TT830 and DT) alone
number (out of 20) donors positive for memory T-cells responding to peptide ([1]; positive if greater than 0.08% responding central memory T-cells in the CD4+CD45RAlow population, FIG. 3): 20/20

TLLYVLFEVkvsvrQSIALSSLMVAQ (TLLYVLFEV[dK][dV][dS][dV][dR]QSIALSSLMVAQ) [AdVkDTt]
memory T-cell recall response of individual peptides and heterodimeric peptides lacking a cathepsin cleavage site compared with this peptide [1]: weaker response as compared to the donor response to heterotrimeric peptides

LIFLARSALILRkvsvrILSIYSTVASSLALAI [AATkABW2]
memory T-cell recall response, influenza epitopes [1]: positive
